These results are taken from publication PMC10809383, “Synthesis and migrastatic activity of cytochalasin analogues lacking a macrocyclic moiety” (RSC Medicinal Chemistry, 2023).

What all share (format): cell-based
Assay [1] deals with human fibroblasts (MRC-5). Put plainly: WST-1 viability assay, MRC-5 cells. The settings on record: MRC5, 72 h treatment, WST-1 assay, 2D culture, 0–50 μM. The protocol:
(§1) In addition, the cytotoxic activity of compounds 17, 20, and 22–30 was assessed by the WST-1 viability assay using BLM (human melanoma) and MRC-5 (noncancerous human fibroblasts) cells growing in a monolayer (2D cultures, Table 2) after 72 h of treatment.
(§2) Human cells from melanoma (BLM) and human lung fibroblasts (MRC-5, Merck, USA) were used to evaluate in vitro cytotoxicity of the prepared compounds. The cells were maintained at the exponential phase of growth (passaging done by trypsin–EDTA solution) in DMEM and MEM, for BLM and MRC-5, respectively, with stable L-glutamine and supplemented with 10% fetal bovine serum (Thermo Fisher Scientific, USA). The cells were kept in an incubator at 37 °C, 5% CO2 in the atmosphere, and 95% humidity.
(§3) The compound cytotoxicity was determined by a WST-1 viability assay (Merck, USA). The amount of 5000 BLM and MRC-5 cells were seeded into individual wells of 96-well plates in 100 μL of cell cultivation media and maintained in an incubator for 16 h. After this period, the cells were treated with a concentration series (0–50 μM) of the tested compounds diluted in another 100 μL of cultivation media, which was added to the wells containing cells and incubated for 72 h. Then, BLM and MRC-5 cell viability was evaluated by WST-1 agent (5% v/v solution in phenol red-free DMEM media), i.e., the cell media was discarded and 100 μL of WST-1 solution was added. After 2 h incubation, the absorbance of formazan, derived from the WST-1 tetrazolium salt was determined spectrophotometrically at 450 nm (reference at 650 nm) by a UV-vis spectrophotometer (Bio-Rad, USA). Untreated cells, cells treated only with a vehicle, and cells treated with cytochalasin B (1) and D (2) served as controls. The measurement occurred in three independent repetitions each of which consisted of three technical replicates. The data were plotted as dose–response curves from which the half-maximal inhibitory concentrations (IC50) were calculated using AAT Bioquest.

For assay [2], the system named is human melanoma cells (BLM). Put plainly: WST-1 viability assay, BLM cells. Conditions: for IC50: Homo sapiens, 72 h treatment, WST-1 assay, 2D culture, 0–50 μM; for selectivity index (SI): MRC-5 versus BLM, 72 h, WST-1. Here is the method: as §1, §2, §3
Assay [3] concerns human melanoma cell line BLM. Put plainly: Spheroid invasion assay (migrastatic activity). The settings on record: 10 µM, 24 h, BLM spheroids in collagen; DMSO control 1.02. Here is the method: Compounds 17, 20, and 22–30 were screened for their migrastatic activity using a spheroid invasion assay with the human melanoma cell line BLM.[46] Spheroids were formed and subsequently treated with cytochalasin analogues at a concentration of 10 μM for 24 h. CytB (1) and CytD (2) served as reference compounds for comparison. There was no significant increase in cell migration observed for any of the compounds tested. […] However, the effect was less profound than that of the reference compounds 1 and 2.
The spheroid invasion assay was performed following a previously published protocol.[63] Briefly, BLM cells were grown as spheroids using 3D Petri Dish (Microtissues). After 2 days of spheroid formation, 1.5 mg mL^−1 collagen solution (rat tail, collagen type I) was prepared (1.5 mg mL^−1 rat-tail collagen, 1× DMEM, 1% (v/v) FBS) and added at the bottom of a 96-well plate. Spheroids were embedded into the collagen (one spheroid per well) and covered with another layer of the gel. Collagen was polymerized at 37 °C and subsequently overlaid with a cultivation medium. Images of spheroids were taken with Leica TCS SP2 microscope (5×/0.15 dry objective; LAS X Life Science Microscope software) immediately after their seeding into collagen and again after 24 h. The area of the spheroids at 0 and 24 h was measured using FiJi (Rasband, W.S., ImageJ, NIH, Bethesda, MD, USA). Cellular invasiveness was determined as an increase in spheroid area within 24 h. Three independent experiments were conducted with at least 8 spheroids analysed in each experiment. Statistical analysis was performed in GraphPad using one-way ANOVA. For numeric data and representative images from this assay, see ESI, ^† Table S1 and Fig. S1.
Table S1: Spheroid invasion assay with BLM cell line at 10 µM concentration, 24 h.
Figure S1: Representative images of BLM cell spheroid invasion assay with or without
inhibitor. Images were taken at 0 h and 24 h. using a Leica TCS SP2 microscope (5x/0.15
dry objective). DMSO (first column) was used as a control. Scale bar 500 µm.

Broadly, the IC50 is the concentration at which inhibition is half-maximal. In turn, `COC(=O)[C@@]12C(=O)N[C@@H](Cc3ccccc3)[C@@H]1[C@H](C)C(C)=C[C@@H]2CCOCCc1ccccc1` [Compound 17a, Methyl (1S,3aR,4S,7S,7aR)-1-benzyl-6,7-dimethyl-3-oxo-4-(2-phenethoxyethyl)-1,2,3,4,7,7a-hexahydro-3aH-isoindole-3a-carboxylate] had an IC50 in assay [1] of 30.5 ± 0.38 µM. In assay [2], the IC50 came out at 27.1 ± 1.24 µM and the “selectivity index (SI)” value came out at 1.1. This compound also showed a rel. spheroid area in assay [3] of 1.21.
As to `COC(=O)[C@@]12C(=O)N[C@@H](Cc3ccccc3)[C@@H]1[C@H](C)C(C)=C[C@@H]2CCOCCc1ccc(OC)cc1` [Compound 17b, Methyl (1S,3aR,4S,7S,7aR)-1-benzyl-4-(2-(4-methoxyphenethoxy)ethyl)-6,7-dimethyl-3-oxo-1,2,3,4,7,7a-hexahydro-3aH-isoindole-3a-carboxylate], half-maximal inhibition in assay [1] (IC50) required 40.5 ± 4.65 µM. In assay [2], the midpoint of inhibition, the IC50, lay at 35.3 ± 4.75 µM and the “selectivity index (SI)” value turned out to be 1.1. This compound also returned a rel. spheroid area in assay [3] of 1.14.
The matching figures for `COC(=O)[C@@]12C(=O)N[C@@H](Cc3ccccc3)[C@@H]1[C@H](C)C(C)=C[C@@H]2CCOCCc1ccc(C)cc1` [Compound 17c, Methyl (1S,3aR,4S,7S,7aR)-1-benzyl-6,7-dimethyl-4-(2-(4-methylphenethoxy)ethyl)-3-oxo-1,2,3,4,7,7a-hexahydro-3aH-isoindole-3a-carboxylate]: 21.5 ± 2.78 µM, 30.3 ± 4.87 µM, 0.71 and 0.93.
The matching figures for `COC(=O)[C@@]12C(=O)N[C@@H](Cc3ccccc3)[C@@H]1[C@H](C)C(C)=C[C@@H]2CCOCCc1ccc(F)cc1` [Compound 17d, Methyl (1S,3aR,4S,7S,7aR)-1-benzyl-4-(2-(4-fluorophenethoxy)ethyl)-6,7-dimethyl-3-oxo-1,2,3,4,7,7a-hexahydro-3aH-isoindole-3a-carboxylate]: 33.5 ± 4.98 µM, 27.7 ± 2.45 µM, 1.2 and 1.24.
For `COC(=O)[C@@]12C(=O)N[C@@H](Cc3ccccc3)[C@@H]1[C@H](C)C(C)=C[C@@H]2CCOCCc1cccc(F)c1` [Compound 17e, Methyl (1S,3aR,4S,7S,7aR)-1-benzyl-4-(2-(3-fluorophenethoxy)ethyl)-6,7-dimethyl-3-oxo-1,2,3,4,7,7a-hexahydro-3aH-isoindole-3a-carboxylate], in that order: 31.9 ± 4.02 µM, 25.9 ± 2.97 µM, 1.2 and 0.96.
In assay [1], `COC(=O)[C@@]12C(=O)N[C@@H](Cc3ccccc3)[C@@H]1[C@H](C)C(C)=C[C@@H]2CCOCCc1ccccc1F` [Compound 17f, Methyl (1S,3aR,4S,7S,7aR)-1-benzyl-4-(2-(2-fluorophenethoxy)ethyl)-6,7-dimethyl-3-oxo-1,2,3,4,7,7a-hexahydro-3aH-isoindole-3a-carboxylate] had an IC50 of 34.5 ± 4.69 µM. For the same compound, in assay [2], the IC50 was 21 ± 4.32 µM and the “selectivity index (SI)” value is reported as 1.6. In assay [3], this compound registered a rel. spheroid area of 0.92.
As for `COC(=O)[C@@]12C(=O)N[C@@H](Cc3ccccc3)[C@@H]1[C@H](C)C(C)=C[C@@H]2CCOCCc1ccc(Cl)cc1` [Compound 17g, Methyl (1S,3aR,4S,7S,7aR)-1-benzyl-4-(2-(4-chlorophenethoxy)ethyl)-6,7-dimethyl-3-oxo-1,2,3,4,7,7a-hexahydro-3aH-isoindole-3a-carboxylate], the IC50 in assay [1] came out at 22.2 ± 12.2 µM; in assay [2] it was 19.5 ± 1.23 µM. For the same compound, the “selectivity index (SI)” value in assay [2] is reported as 1.1. The rel. spheroid area in assay [3] amounted to 1.17.
On to `COC(=O)[C@@]12C(=O)N[C@@H](Cc3ccccc3)[C@@H]1[C@H](C)C(C)=C[C@@H]2CCOCCc1ccc(Br)cc1` [Compound 17h, Methyl (1S,3aR,4S,7S,7aR)-1-benzyl-4-(2-(4-bromophenethoxy)ethyl)-6,7-dimethyl-3-oxo-1,2,3,4,7,7a-hexahydro-3aH-isoindole-3a-carboxylate], for which the IC50 in assay [1] and in assay [2] was above 50 µM throughout. In assay [3], this compound displayed a rel. spheroid area of 1.05.
Consider `COC(=O)[C@@]12C(=O)N[C@@H](Cc3ccccc3)[C@@H]1[C@H](C)C(C)=C[C@@H]2CCOCCc1cccc(Br)c1` [Compound 17i, Methyl (1S,3aR,4S,7S,7aR)-1-benzyl-4-(2-(3-bromophenethoxy)ethyl)-6,7-dimethyl-3-oxo-1,2,3,4,7,7a-hexahydro-3aH-isoindole-3a-carboxylate], for which the figures for the IC50 in assay [1] and in assay [2] were 31.2 ± 6.95 µM and 24.3 ± 1.82 µM, respectively. Besides, in assay [2], the “selectivity index (SI)” value stood at 1.3. In assay [3], this compound yielded a rel. spheroid area of 1.14.
The matching figures for `COC(=O)[C@@]12C(=O)N[C@@H](Cc3ccccc3)[C@@H]1[C@H](C)C(C)=C[C@@H]2CCOCCc1ccc([N+](=O)[O-])cc1` [Compound 17j, Methyl (1S,3aR,4S,7S,7aR)-1-benzyl-6,7-dimethyl-4-(2-(4-nitrophenethoxy)ethyl)-3-oxo-1,2,3,4,7,7a-hexahydro-3aH-isoindole-3a-carboxylate]: 34.7 ± 6.18 µM, 35.2 ± 2.51 µM, 1.0 and 1.12.
On to `COC(=O)[C@@]12C(=O)N[C@@H](Cc3ccccc3)[C@@H]1[C@H](C)[C@@]1(C)O[C@H]1[C@@H]2CCOCCc1ccccc1` [Compound 22a, Methyl (1aS,2R,2aS,5S,5aR,6S,6aR)-5-benzyl-6,6a-dimethyl-3-oxo-2-(2-phenethoxyethyl)octahydro-2aH-oxireno[2,3-f]isoindole-2a-carboxylate], for which the IC50 in assay [1] and in assay [2] was above 50 µM each time. In assay [3], this compound had a rel. spheroid area of 1.11.
With `COC(=O)[C@@]12C(=O)N[C@@H](Cc3ccccc3)[C@@H]1[C@H](C)[C@@]1(C)O[C@H]1[C@@H]2CCOCCc1ccc(OC)cc1` [Compound 22b, Methyl (1aS,2R,2aS,5S,5aR,6S,6aR)-5-benzyl-2-(2-(4-methoxyphenethoxy)ethyl)-6,6a-dimethyl-3-oxooctahydro-2aH-oxireno[2,3-f]isoindole-2a-carboxylate], the IC50 in assay [1] is above 50 µM; in assay [2] it was 20.6 ± 6.43 µM. In addition, in assay [2], the “selectivity index (SI)” value was above 2.4. In addition, the rel. spheroid area in assay [3] came out at 1.24.
In the case of `COC(=O)[C@@]12C(=O)N[C@@H](Cc3ccccc3)[C@@H]1[C@H](C)[C@@]1(C)O[C@H]1[C@@H]2CCOCCc1ccc(Br)cc1` [Compound 22h, Methyl (1aS,2R,2aS,5S,5aR,6S,6aR)-5-benzyl-2-(2-(4-bromophenethoxy)ethyl)-6,6a-dimethyl-3-oxooctahydro-2aH-oxireno[2,3-f]isoindole-2a-carboxylate], the IC50 in assay [1] and in assay [2] was above 50 µM throughout. The same compound yielded a rel. spheroid area in assay [3] of 0.98.
As to `COC(=O)[C@@]12C(=O)N[C@@H](Cc3ccccc3)[C@@H]1[C@H](C)[C@@](C)(O)[C@@H](O)[C@@H]2CCOCCc1ccccc1` [Compound 23a, Methyl (1S,3aS,4R,5S,6R,7S,7aR)-1-benzyl-5,6-dihydroxy-6,7-dimethyl-3-oxo-4-(2-phenethoxyethyl)octahydro-3aH-isoindole-3a-carboxylate], the IC50 in assay [1] was determined as 20.9 ± 2.38 µM; in assay [2], 9.41 ± 2.52 µM. Besides, the “selectivity index (SI)” value in assay [2] is reported as 2.2. The compound also showed a rel. spheroid area in assay [3] of 1.01.
